From paper PMC12606622, “Assessment of the Binding Patterns for Endocrine Disrupting Chemicals in Complex with Estrogen and Androgen Receptors by Leveraging the Asclepios Enalos KNIME Nodes” (Journal of Chemical Information and Modeling, 2025)
pEC50, pIC50: −log10 of the molar value. Where two headings read alike, the source gives them in different places.

Key:
[1] = target: T1, human AR (Homo sapiens, UniProt P10275); assay type: cell-based; conditions: for % residual agonist activity: at 30 μM, 3 nM 11-ketoDHT only = 100%
T1 sequence (P10275 640-920): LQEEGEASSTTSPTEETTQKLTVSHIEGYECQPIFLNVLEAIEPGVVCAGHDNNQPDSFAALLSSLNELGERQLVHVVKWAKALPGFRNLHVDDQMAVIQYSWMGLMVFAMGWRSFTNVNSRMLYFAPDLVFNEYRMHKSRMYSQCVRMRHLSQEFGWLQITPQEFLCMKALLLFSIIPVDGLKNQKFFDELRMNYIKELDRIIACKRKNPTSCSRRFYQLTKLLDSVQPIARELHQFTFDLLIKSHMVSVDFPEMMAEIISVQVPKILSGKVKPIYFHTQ
Method: (§1) HEK293 cells (ACC305, DSMZ, Braunschweig, Germany) were cultivated at 37 °C in 5% CO2 in DMEM supplemented with 10% FBS, 2 mM L-glutamine, 1 mM sodium pyruvate, 100 U/mL penicillin, and 100 μg/mL streptomycin. For exposure studies, cells were cultivated in phenol red-free DMEM, supplemented with 1% dextran-coated charcoal-treated FBS.
In the case of the N–C-terminal interaction assay of AR, the ESR1 effector plasmid was replaced by 0.02 μg each of pVP16-AR (1–503) and pM-AR (640–920). Aliquot (0.6 μL) of 1 mg/mL PEI MAX 40K solution was diluted to 25 μL with 150 mM NaCl. The diluted PEI MAX 40K was added to the diluted DNA mixture, and the mixture was incubated at room temperature for 15 min. In parallel, HEK 293 cells were adjusted to 40,000 cells in 200 μL of culture medium per well. The transfection mixture (50 μL) was added to the cell suspension, gently mixed, and pipetted into a well of a 96-well plate. The next day, the transfected cells were treated with chemicals for 24 h before cell lysis with 50 μL per well of passive lysis buffer (Promega). Firefly and Renilla luciferase activities were measured as described previously. Results were normalized for transfection efficiency by dividing firefly luciferase activity by Renilla luciferase activity, measured from the same well. Assays were performed in technical triplicate in each independent experiment. […] Concentration response curves were fitted with nonlinear regression using the formula with a variable slope (four parameters) or the formula with a standard slope (three parameters) of GraphPad Prism 10.4.1 (GraphPad Software, Boston, MA, USA), as indicated in the respective figure legends.
AR N–C-terminal interaction mammalian two-hybrid assays were run in transiently transfected HEK293 cells, which were treated afterward for 24 h with the indicated concentrations of chemicals. […] Data are presented as a mean ± SD fold change (n = 4 independent experiments) with respect to the normalized reporter gene activity of cells treated with 0.1% DMSO only. […] Data are presented as mean ± SD (n = 3 independent experiments) with respect to the normalized reporter gene activity of cells treated with 3 nM 11-ketoDHT only, which was designated as 100%. Curves were fitted with nonlinear regression using the formula with a standard slope (three parameters) of GraphPad Prism 10.4.1.

[2] = target: T2, human ERα (ESR1) (Homo sapiens, UniProt P03372); test: ERα mammalian one-hybrid reporter gene assay in transiently transfected HEK293 cells; assay type: cell-based; conditions: for E max [FC]: fold change vs 0.1% DMSO, at conc. BPA 10, BPF 10, BPS 30, ZEA 0.1 μM
T2 sequence (P03372 251-595): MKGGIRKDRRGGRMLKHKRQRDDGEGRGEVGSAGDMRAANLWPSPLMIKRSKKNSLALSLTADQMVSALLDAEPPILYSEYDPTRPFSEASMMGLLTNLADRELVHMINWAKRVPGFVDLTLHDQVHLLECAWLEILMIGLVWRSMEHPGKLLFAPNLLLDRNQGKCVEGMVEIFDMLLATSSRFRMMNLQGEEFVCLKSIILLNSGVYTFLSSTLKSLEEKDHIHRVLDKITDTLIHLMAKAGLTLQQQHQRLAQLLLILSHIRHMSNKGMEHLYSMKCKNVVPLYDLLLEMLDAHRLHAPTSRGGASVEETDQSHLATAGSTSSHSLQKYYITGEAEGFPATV
Method: as §1
Per well of a 96-well plate, a plasmid DNA mixture consisting of 0.26 μg of pGL4-G5, 0.04 μg of pM-ESR1 (251–495), and 0.005 μg of pGL4.75 [hRluc/CMV] was diluted with 150 mM NaCl to a final volume of 25 μL. […] Aliquot (0.6 μL) of 1 mg/mL PEI MAX 40K solution was diluted to 25 μL with 150 mM NaCl. The diluted PEI MAX 40K was added to the diluted DNA mixture, and the mixture was incubated at room temperature for 15 min. In parallel, HEK 293 cells were adjusted to 40,000 cells in 200 μL of culture medium per well. The transfection mixture (50 μL) was added to the cell suspension, gently mixed, and pipetted into a well of a 96-well plate. The next day, the transfected cells were treated with chemicals for 24 h before cell lysis with 50 μL per well of passive lysis buffer (Promega). Firefly and Renilla luciferase activities were measured as described previously. Results were normalized for transfection efficiency by dividing firefly luciferase activity by Renilla luciferase activity, measured from the same well. Assays were performed in technical triplicate in each independent experiment. […] Concentration response curves were fitted with nonlinear regression using the formula with a variable slope (four parameters) or the formula with a standard slope (three parameters) of GraphPad Prism 10.4.1 (GraphPad Software, Boston, MA, USA), as indicated in the respective figure legends.
ERα mammalian one-hybrid assays were executed in transiently transfected HEK293 cells, which were treated afterward for 24 h with the indicated concentrations of chemicals. Data are presented as a mean ± SD fold change (n ≥ 3 independent experiments) with respect to the normalized reporter gene activity of cells treated with 0.1% DMSO only.

[3] = HEK293, 24 h treatment, four-parameter fit, n ≥ 3, read-out: EC50 mean (activating ERα)

SMILES	E max [FC] [2] [FC]	% residual agonist activity [1] [%]	pEC50 [2, 3]	also measured
C[C@]12CCC(=O)C[C@@H]1CC[C@H]1[C@@H]3CC[C@H](O)[C@@]3(C)CC(=O)[C@@H]12 [11-ketoDHT, 11-Ketodihydrotestosterone, reference compound]	–	–	–	pEC50 ([1]; agonist mode, HEK293, 24 h, n = 4, 95% CI 2.3–4.7 nM, read-out: EC50 (induction of AR N–C interaction)): 8.48
CC(C)(c1ccc(O)cc1)c1ccc(O)cc1 [Bisphenol A]	19.6	3.1	–	pIC50 ([1]; read-out: IC50 mean (inhibiting AR)): 6.01
Oc1ccc(Cc2ccc(O)cc2)cc1 [Bisphenol F]	56.1	–	5.68	–
O=S(=O)(c1ccc(O)cc1)c1ccc(O)cc1 [Bisphenol S]	48.5	–	5.28	–
C[C@H]1CCCC(=O)CCC/C=C/c2cc(O)cc(O)c2C(=O)O1 [Zearalenone]	89.9	1.5	–	pEC50 [2]: 8.31; potency fold higher than BPA (ERα activation) ([2]; ratio of EC50 values, vs BPA): 120 fold; potency fold higher than BPF (ERα activation) ([2]; ratio of EC50 values, vs BPF): 430 fold; potency fold higher than BPS (ERα activation) ([2]; ratio of EC50 values, vs BPS): 1060 fold; pIC50 [1]: 5.43
